From patent US10159634B2, “Compositions and methods for inhibiting hair growth” (priority 2009, dated 2018)

Test system: C3H mice
Assay: Telogen Conversion Assay
Format: in vivo
Conditions: for Average Grades: average of 7 mice, visual grade 0 (pink skin) to 4 (full anagen), topical; for hair regrowth (regrowth score, FIG. 1): applied daily, week 3 and week 4, at the appropriate dose-level, compared to the control group; for hair growth (average grade): grades of 7 mice after 23 days, example written in present tense
Description: FP receptor antagonists are tested for their potential to […] using the Telogen Conversion Assay. The Telogen Conversion Assay measures the potential of a FP receptor antagonist to inhibit the conversion of mice in the resting stage of the hair growth cycle (“telogen”), to the growth stage of the hair growth cycle (“anagen”), and to assess the rate of anagen growth.
Without intending to be limited by theory, there are three principal phases of the hair growth cycle: anagen, catagen, and telogen. It is believed that there is a longer telogen period in C3H mice (Harlan Sprague Dawley, Inc., Indianapolis, Ind.) from approximately 40 days of age until about 75 days of age, when hair growth is synchronized. It is believed that after 75 days of age, hair growth is no longer synchronized. Wherein about 40 day-old mice with dark fur (brown or black) are used in hair growth experiments, melanogenesis occurs along with hair (fur) growth wherein the topical application of hair growth inducers is evaluated. The Telogen Conversion Assay herein is used to screen FP receptor antagonists for potential hair growth by measuring melanogenesis and/or inhibition of expected hair growth.
Three groups of 44 day-old C3H mice are used: a vehicle control group, a positive control group, and a test FP receptor antagonist group, wherein the test FP receptor antagonist group is administered a FP receptor antagonist F used in the method of this invention. The length of the assay is typically 24 days with 15 treatment days (wherein the treatment days occur Mondays through Fridays). Day 1 is the first day of treatment. Typical dosage concentrations are set forth in Table 1, however the skilled artisan will readily understand that such concentrations may be modified.
The mice are treated topically Monday through Friday on their lower back (base of tail to the lower rib). A pipette and tip are used to deliver 400 μl to each mouse's back. The 400 μL application is applied slowly while moving hair on the mouse to allow the application to reach the skin.
While each treatment is being applied to the mouse topically, a visual grade of from 0 to 4 will be given to the skin color in the application area of each animal. As a mouse converts from telogen to anagen, its skin color will become more bluish-black.

| Molecule | Average Grades (23 Days) | Average Grades (25 Days) | Average Grades (26 Days) | hair regrowth (regrowth score, FIG. 1) | hair growth (average grade) |
| --- | --- | --- | --- | --- | --- |
| O=C(O)CCC/C=C\CC1C(/C=C/[C@H](O)C2Cc3ccccc3C2)[C@@H](F)C[C@@H]1O (stereo partly drawn) [Example 1] | 0.4 | 0.1 | 0.7 |  |  |
| COC(=O)CCC/C=C\CC1C(/C=C/[C@H](O)C2Cc3ccccc3C2)[C@@H](F)C[C@@H]1O (stereo partly drawn) [Example 2] | 0.1 |  |  | inhibited hair regrowth |  |
| O=C(N[C@H](c1ccccc1)c1ccccn1)[C@@H]1SCCN1S(=O)(=O)c1ccc(-c2ccccc2)cc1 [Example 3] |  |  |  | inhibited hair regrowth | significantly reduces hair growth |
| CC(C)OC(=O)CCC/C=C\CC1C(/C=C/[C@H](O)C2Cc3ccccc3C2)[C@@H](F)C[C@@H]1O (stereo partly drawn) [Example 4] |  |  |  |  | significantly reduces hair growth |
| Ile-Leu-Gly-His-(citrulline)-Asp-Tyr-Lys [Example 5] |  |  |  |  | significantly reduces hair growth |
